Results as given in patent publication US10221162B2, “Triazole agonists of the APJ receptor” (priority 2015, dated 2019).
Like-named read-outs stand apart in the source and are kept apart here.

Columns and labels:
[1] = target: human APJ receptor (Homo sapiens (Human), UniProt P35414); assay: [35S]GTPγS binding assay (hAPJ SPA); assay type: biochemical
Protocol: The human APJ receptor was cloned by polymerase chain reaction and the gene encoding the receptor was subcloned in pFLAG-CMV™-3 expression vector (Sigma, Saint Louis, Mo. USA) in-house at Amgen. A GTPγS binding assay was performed on membranes prepared from CHO cells stably expressing human APJ receptor. The optimum experimental conditions for the concentrations of GDP, MgCl2, and NaCl in the assay buffer were initially determined. The assay was performed in assay buffer [20 mM HEPES, pH 7.5, 5 mM MgCl2, and 0.1% (w/v) BSA with 200 mM NaCl, 3 μM GDP] and membranes expressing human APJ receptor/well along with WGA PS beads. The reaction was initiated by addition of 0.2 nM [^35S]GTPγS (Perkin Elmer Life and Analytical Sciences, Waltham USA) in the absence or presence of various ligands and incubated at RT for 90 min. […] All the results presented are means of several independent experiments and analyzed by non-linear regression methods using commercially available program Prism (GraphPad, San Diego, Calif.) to obtain EC50 detailed in Table 58.

[2] = tested on: isolated perfused rat hearts; assay: Ex vivo isolated perfused rat heart (Langendorff) assay; conditions: percent change; for Isolated Heart Assay dP/dtmax (%): LV contractility; for Isolated Heart Assay dP/dtmin (%): LV relaxation
[3] = tested on: heart failure rat model; assay: In vivo cardiac contractility in heart failure (MI) rat model; conditions: heart failure rats; for MI Rat Model dP/dtmax (%) / cardiac contractility as measured by dP/dt: acute administration for 30 min; for cardiac contractility as measured by dP/dt: result in words
Protocol: Male Lewis rats (Charles River, USA) at 2-3 months of age were used for the study. […] APJ agonists were administered dose dependently acutely for a period of 30 min.
The interaction between […] (ACE2) and Apelin biology is complicated. To investigate the interaction between the Apelin-APJ and ACE signalling pathways, we examined the improvement in cardiac function with APJ small molecule agonists in the presence of ACE inhibitor captopril in heart failure rats in vivo.

[4] = tested on: naive Sprague Dawley rat hearts; assay: Langendorff isolated perfused rat heart (ex vivo contractility and relaxation); conditions: Langendorff apparatus, as a function of concentration
[5] = membranes from CHO cells stably expressing human APJ receptor, [35S]GTPγS, read-out: Activity hAPJ SPA EC50 IP

Chain of human APJ receptor (P35414 whole entry): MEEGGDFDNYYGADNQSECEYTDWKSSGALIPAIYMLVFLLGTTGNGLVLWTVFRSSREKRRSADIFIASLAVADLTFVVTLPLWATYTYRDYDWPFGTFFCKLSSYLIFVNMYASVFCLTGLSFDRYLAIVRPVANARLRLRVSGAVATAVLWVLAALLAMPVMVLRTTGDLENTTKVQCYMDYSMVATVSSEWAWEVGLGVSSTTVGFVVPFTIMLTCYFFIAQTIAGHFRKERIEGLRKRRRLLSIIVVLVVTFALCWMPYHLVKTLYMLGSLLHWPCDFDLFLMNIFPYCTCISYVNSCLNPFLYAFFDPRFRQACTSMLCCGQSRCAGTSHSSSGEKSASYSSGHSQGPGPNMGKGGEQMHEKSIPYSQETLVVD

SMILES | Isolated Heart Assay dP/dtmax (%) [2] [%] | Isolated Heart Assay dP/dtmin (%) [2] [%] | also measured
COc1cccc(OC)c1-n1c(NS(=O)(=O)[C@@H](C)[C@H](O)c2ccc(C#N)cc2)nnc1-c1cncc(C)c1.COc1cccc(OC)c1-n1c(NS(=O)(=O)[C@H](C)[C@@H](O)c2ccc(C#N)cc2)nnc1-c1cncc(C)c1 (mixture of isomers) [Example 247.0, (1R,2S)-1-(4-cyanophenyl)-N-(4-(2,6-dimethoxyphenyl)-5-(5-methyl-3-pyridinyl)-4H-1,2,4-triazol-3-yl)-1-hydroxy-2-propanesulfonamide and (1S,2R)-1-(4-cyanophenyl)-N-(4-(2,6-dimethoxyphenyl)-5-(5-methyl-3-pyridinyl)-4H-1,2,4-triazol-3-yl)-1-hydroxy-2-propanesulfonamide] |  |  | EC50 [1]: 3.8 nM
COc1cccc(OC)c1-n1c(NS(=O)(=O)[C@H](C)[C@@H](C)c2ncc(Cl)cn2)nnc1-c1cccnc1 (racemic) [Example 694.0, (2R,3S)-3-(5-chloropyrimidin-2-yl)-N-(4-(2,6-dimethoxyphenyl)-5-(pyridin-3-yl)-4H-1,2,4-triazol-3-yl)butane-2-sulfonamide or (2S,3R)-3-(5-chloropyrimidin-2-yl)-N-(4-(2,6-dimethoxyphenyl)-5-(pyridin-3-yl)-4H-1,2,4-triazol-3-yl)butane-2-sulfonamide] | 18.0 | 32.0 | MI Rat Model dP/dtmax (%) [3]: 8%
COc1cccc(OC)c1-n1c(NS(=O)(=O)[C@@H](C)[C@H](C)c2ncc(F)cn2)nnc1-c1cccnc1 (single isomer, unassigned) [Example 184.0, (2R,3S)-N-(4-(2,6-dimethoxyphenyl)-5-(3-pyridinyl)-4H-1,2,4-triazol-3-yl)-3-(5-fluoro-2-pyrimidinyl)-2-butanesulfonamide or (2S,3R)-N-(4-(2,6-dimethoxyphenyl)-5-(3-pyridinyl)-4H-1,2,4-triazol-3-yl)-3-(5-fluoro-2-pyrimidinyl)-2-butanesulfonamide] | 14.5 | 14.0 | 
COc1cccc(OC)c1-n1c(NS(=O)(=O)[C@@H](C)[C@H](OC)c2ncc(F)cn2)nnc1-c1cncc(C)c1 (single isomer, unassigned) [Example 242.0] | 5.0 | −2.7 | 
COc1cccc(OC)c1-n1c(NS(=O)(=O)[C@@H](C)[C@H](OC)c2ncc(F)cn2)nnc1-c1cccnc1 (single isomer, unassigned) [Example 244.0] | 14.0 | 15.0 | 
COc1cccc(-c2nnc(NS(=O)(=O)[C@@H](C)[C@H](O)c3ccccc3OC)n2-c2c(OC)cccc2OC)n1 (single isomer, unassigned) [Example 324.0] |  |  | EC50 [1, 5]: 14 nM
COc1cccc(-c2nnc(NS(=O)(=O)[C@@H](C)[C@H](O)c3ccccc3OC)n2-c2c(OC)cccc2OC)n1 (single isomer, unassigned) [Example 325.0] |  |  | EC50 [1, 5]: 170 nM
COc1cccc(-c2nnc(NS(=O)(=O)[C@@H](C)[C@H](O)c3ccccc3OC)n2-c2c(OC)cccc2OC)n1 (single isomer, unassigned) [Example 326.0] |  |  | EC50 [1, 5]: 22 nM
COc1cccc(-c2nnc(NS(=O)(=O)[C@@H](C)[C@H](O)c3ccccc3OC)n2-c2c(OC)cccc2OC)n1 (single isomer, unassigned) [Example 327.0] |  |  | EC50 [1, 5]: 2 nM
COc1cccc(OC)c1-n1c(NS(=O)(=O)[C@H](C)[C@@H](OC)c2ccc(Cl)cn2)nnc1-c1cccnc1 (single isomer, unassigned) [Example 531.0, (1S,2R)-1-(5-chloro-2-pyridinyl)-N-(4-(2,6-dimethoxyphenyl)-5-(3-pyridinyl)-4H-1,2,4-triazol-3-yl)-1-methoxy-2-propanesulfonamide or (1R,2S)-1-(5-chloro-2-pyridinyl)-N-(4-(2,6-dimethoxyphenyl)-5-(3-pyridinyl)-4H-1,2,4-triazol-3-yl)-1-methoxy-2-propanesulfonamide] | 4.1 | 1.9 | 
COc1cccc(OC)c1-n1c(NS(=O)(=O)[C@H](C)[C@@H](OC)c2ncc(Cl)cn2)nnc1-c1cncc(C)c1 (single isomer, unassigned) [Example 557.0] | 17.0 | 20.0 | MI Rat Model dP/dtmax (%) [3]: No effect
CCOc1cccc(OC)c1-n1c(NS(=O)(=O)[C@@H](C)[C@H](OC)c2ncc(C)cn2)nnc1-c1cccc(OC)n1 (single isomer, unassigned) [Example 665.0, (1R,2S,P)—N-(4-(2-ethoxy-6-methoxyphenyl)-5-(6-methoxy-2-pyridinyl)-4H-1,2,4-triazol-3-yl)-1-methoxy-1-(5-methyl-2-pyrimidinyl)-2-propanesulfonamide or (1R,2S,M)-N-(4-(2-ethoxy-6-methoxyphenyl)-5-(6-methoxy-2-pyridinyl)-4H-1,2,4-triazol-3-yl)-1-methoxy-1-(5-methyl-2-pyrimidinyl)-2-propanesulfonamide] |  |  | EC50 [1, 5]: 3.9 nM
COc1cnc([C@H](O)[C@@H](C)S(=O)(=O)Nc2nnc(-c3cccnc3)n2-c2c(OC)cccc2OC)cn1 (single isomer, unassigned) [Example 706.0, (1S,2R)-N-(4-(2,6-dimethoxyphenyl)-5-(3-pyridinyl)-4H-1,2,4-triazol-3-yl)-1-hydroxy-1-(5-methoxy-2-pyrazinyl)-2-propanesulfonamide or (1R,2S)-N-(4-(2,6-dimethoxyphenyl)-5-(3-pyridinyl)-4H-1,2,4-triazol-3-yl)-1-hydroxy-1-(5-methoxy-2-pyrazinyl)-2-propanesulfonamide] | 9.1 | 4.0 | 
COc1ncnc(OC)c1-n1c(NS(=O)(=O)[C@@H](C)[C@H](OC)c2ccc(Cl)cn2)nnc1-c1cccnc1 (single isomer, unassigned) [Example 711.0, (1R,2S)-1-(5-chloro-2-pyridinyl)-N-(4-(4,6-dimethoxy-5-pyrimidinyl)-5-(3-pyridinyl)-4H-1,2,4-triazol-3-yl)-1-methoxy-2-propanesulfonamide or (1S,2R)-1-(5-chloro-2-pyridinyl)-N-(4-(4,6-dimethoxy-5-pyrimidinyl)-5-(3-pyridinyl)-4H-1,2,4-triazol-3-yl)-1-methoxy-2-propanesulfonamide] | 9.4 | 1.1 | 
C[C@H](CS)C(=O)N1CCC[C@H]1C(=O)O [Captopril] |  |  | improvement in contractility or ejection fraction ([3]; captopril alone, acute settings): does not show a marked improvement in contractility or ejection fraction
COc1cccc(-c2nnc(NS(=O)(=O)[C@@H](C)[C@H](OC)c3ncc(C)cn3)n2-c2c(OC)cccc2OC)n1 [Example 27.0, (1R,2S)—N-(4-(2,6-dimethoxyphenyl)-5-(6-methoxypyridin-2-yl)-4H-1,2,4-triazol-3-yl)-1-methoxy-1-(5-methylpyrimidin-2-yl)propane-2-sulfonamide] |  |  | cardiac contractility as measured by dP/dt [3]: increase in cardiac contractility
COc1cccc(OC)c1-n1c(NS(=O)(=O)[C@@H](C)[C@H](O)c2ncc(C)cn2)nnc1-c1cccc(C)n1 [Example 99.0, (1R,2S)-N-(4-(2,6-dimethoxyphenyl)-5-(6-methylpyridin-2-yl)-4H-1,2,4-triazol-3-yl)-1-hydroxy-1-(5-methylpyrimidin-2-yl)propane-2-sulfonamide] |  |  | left ventricular dP/dtmax (load independent cardiac contractility) [4]: increases load independent cardiac contractility; left ventricular dP/dtmin (load independent cardiac relaxation) [4]: increases load independent cardiac relaxation; cardiac contractility as measured by dP/dt [3]: increase in cardiac contractility
CCO[C@H](c1ncc(C)cn1)[C@H](C)S(=O)(=O)Nc1nnc(-c2cccnc2)n1-c1c(OC)cccc1OC [Example 109.0, (1R,2S)-N-(4-(2,6-dimethoxyphenyl)-5-(pyridin-3-yl)-4H-1,2,4-triazol-3-yl)-1-ethoxy-1-(5-methylpyrimidin-2-yl)propane-2-sulfonamide] |  |  | cardiac contractility as measured by dP/dt [3]: increase in cardiac contractility
COc1cccc(OC)c1-n1c(NS(=O)(=O)[C@@H](C)[C@H](O)c2ncc(C)cn2)nnc1-c1cncc(C)c1 [Example 371.0, (1R,2S)—N-(4-(2,6-dimethoxyphenyl)-5-(5-methylpyridin-3-yl)-4H-1,2,4-triazol-3-yl)-1-hydroxy-1-(5-methylpyrimidin-2-yl)propane-2-sulfonamide] |  |  | cardiac contractility as measured by dP/dt [3]: increase in cardiac contractility
COc1cccc(OC)c1-n1c(NS(=O)(=O)[C@@H](C)[C@H](C)c2ncc(C)cn2)nnc1-c1cccnc1 [Example 586.0, (2S,3R)—N-(4-(2,6-dimethoxyphenyl)-5-(3-pyridinyl)-4H-1,2,4-triazol-3-yl)-3-(5-methyl-2-pyrimidinyl)-2-butanesulfonamide] |  |  | cardiac contractility as measured by dP/dt [3]: increase in cardiac contractility
